# In patent US6469028B1, “Synthesis and use of retinoid compounds having negative hormone and/or anatgonist activities” (Allergan, Inc., priority 1995, dated 2002):
# Assays:
# hairless mice [1] = assay: Example 1: skin irritation by topical agonist, topical antagonist; assay type: in vivo; settings: group B: AGN 191183 0.025 mg/kg/d topical alone, 5 days, scored to day 8, mean±SD
# Procedure: More particularly skin irritation was measured on a semiquantitative scale by the daily subjective evaluation of skin flaking and abrasions. A single number, the topical irritation score, summarizes the skin irritation induced in an animal during the course of an experiment. The topical irritation score is calculated as follows. The topical irritation score is the algebraic sum of a composite flaking score and a composite abrasion score. The composite scores range from 0-9 and 0-8 for flaking and abrasions, respectively, and take into account the maximum severity, the time of onset, and the average severity of the flaking and abrasions observed.
# The severity of flaking is scored on a 5-point scale and the severity of abrasions is scored on a 4-point scale, with higher scores reflecting greater severity. The maximum severity component of the composite scores would be the highest daily severity score assigned to a given animal during the course of observation.
# For the time of onset component of the composite score, a score ranging from 0 to 4 is assigned as follows:
# The average severity component of the composite score is the sum of the daily flaking or abrasion scores divided by the number of observation days.
# To calculate the composite flaking and abrasion scores, the average severity and time of onset scores are summed and divided by 2. The result is added to the maximal severity score. The composite flaking and abrasion scores are then summed to give the overall topical irritation score. Each animal receives a topical irritation score, and the values are expressed as the mean±SD of the individual scores of a group of animals. Values are rounded to the nearest integer.
# Female hairless mice [Crl:SKH1-hrBR] […] Treatments are applied to the dorsal skin in a total volume of 4 ml/kg (˜0.1 ml). Mice were observed daily and scored for flaking and abrasions up to and including 3 days after the last treatment, i.e., day 8.
# hairless mice [2] = assay: Example 2: skin irritation and weight loss by oral agonist, topical antagonist; assay type: in vivo; settings: group B: oral AGN 191183 0.26 mg/kg/d alone, 4 days
# Procedure: Mice were simultaneously treated topically on the dorsal skin with vehicle (97.6% acetone/2.4% dimethylsulfoxide) or solutions of AGN 193109 in vehicle (6 ml/kg). Specific doses for the different treatment groups are give in Table 8. Treatments were administered daily for 4 consecutive days. Mice were weighed and graded for topical irritation daily as described in Example 1 up to and including 1 day after the last treatment. Percent body weight change is calculated by subtracting […], dividing by initial body weight, and multiplying by 100%. Topical irritation scores are calculated as described in Example 1.
# guinea pigs = assay: Example 5: premature epiphyseal plate closure (bone toxicity); assay type: in vivo; settings: AGN 191183 0.06 mg/ml, intraperitoneal osmotic pump, 14 days, n=4
# Procedure: The osmotic pumps are designed by the manufacturer to deliver ˜5 μl of solution per hour continuously for 14 days.
# The animals were euthanized by carbon dioxide asphyxiation 14 days after implantation. The left tibia was removed and placed in 10% buffered formalin. The tibias were decalcified by exposure to a formic acid/formalin solution for 3-4 days, and paraffin sections were prepared. Sections were stained with hematoxylin and eosin by standard methods. The proximal tibial epiphyseal plate was examined and scored as closed or not closed. Epiphyseal plate closure is defined for this purpose as any interruption of the continuity of the epiphyseal growth plate cartilage, i.e., replacement by bone and/or fibroblastic tissue.
# ECE16-1 cells = assay: Example 17: EGF dependent proliferation of ECE16-1 cells; assay type: cell-based; settings: 10 nM AGN 191183 and 0 nM AGN 193109, three days
# Procedure: ECE16-1 cells were seeded at a density of 1×10^4 cells per cm^2 in complete medium containing DMEM:F12 (3:1), nonessential amino acids, 5% FBS, 5 μg/ml transferring, 2 nM of 3,3′,5 triiodothyronine (thyroid hormone or “T3”), 0.1 nNM cholera toxin, 2 mM L-glutamine, 1.8×10^−4 M adenine and 10 ng/ml EGF. Cells were allowed to attach to plates overnight and then shifted to defined medium containing DMEM:F12 (3:1), 2 mM L-glutamine, nonessential amino acids, 0.1% bovine serum albumin, 1.8×10^−4 M adenine, 5 μg/ml transferring, 2 nM T3, 50 μg/ml ascorbic acid, 100 ug/ml streptomycin, 100 units/ml penicillin and 50 μg/ml gentamicin. Defined medium (DM) was supplemented with 10 ng/ml EGF. […] After three days of treatment, cells were harvested as described by Hembree et al. in Cancer Res. 54:3160 (1994) and cell numbers determined using a COULTER counter.
# CaSki cells = assay: Example 18: proliferation of CaSki cells; assay type: cell-based
# Procedure: EGF was added to the retinoid treated cultures to give a final concentration of 20 ng/ml. […] The media was replaced with fresh media and each of the two retinoid compounds, as appropriate, every day. Cell numbers were determined using a COULTER counter as described above.
# [3] = tested on: MRP-8 expression in primary foreskin keratinocytes; assay: Example 20: MRP-8 expression in keratinocytes (RT-PCR); assay type: cell-based, human; settings: AGN 191183 10^−7 M or AGN 193109 10^−6 M, 3 days
# Description: Primary foreskin keratinocytes were isolated according to the procedure described by Nagpal et al. in J. Biol. Chem. 270:923 (1995) and cultured in keratinocyte growth medium (KGM) that was purchased from Clonetics. […] The mRNA was reverse transcribed into cDNA which then served as the template in a PCR amplification protocol using primers specific for either the glyceraldehyde phosphate dehydrogenase (GAPDH) housekeeping gene or MRP-8. The GAPDH primers had the sequences [NT] ID NO:6) and [NT] ID NO:7). The MRP-8 primers had the sequences [NT] ID NO:8) and [NT] ID NO:9). An aliquot from the MRP-8 amplification reaction (10 μl) was removed after every cycle of PCR amplification starting from 12 cycles and ending at 21 cycles. Similarly, an aliquot of the GAPDH amplification reaction was removed after every PCR cycle starting at 15 cycles and ending at 24 cycles. […] The staining intensity of the amplification products served as a quantitative measure of the amount of starting MRNA specific for the given primer set.
# [4] = tested on: stromelysin-1 expression in primary foreskin keratinocytes; assay: Example 21: stromelysin-1 expression in keratinocytes (RT-PCR); assay type: cell-based, human; settings: AGN 191183 10^−7 M or AGN 193109 10^−6 M, 24 hours
# Procedure: Total RNA prepared from mock-treated and retinoid-treated keratinocytes was reverse transcribed and the resulting cDNA was PCR amplified using β-actin or stromelysin-1 oligo primers exactly as described by Nagpal et al. in J. Biol. Chem. 270:923 (1995)), the disclosure of which has been incorporated by reference. A sample (10 μl) from the PCR amplification reaction was removed after every three cycles starting from 18 cycles of PCR amplification. The sample was electrophoresed on a 2% agarose gel and detected after ethidium bromide staining.
smiles,measurement,setting,value
"C/C(=C\c1ccc(C(=O)O)cc1)c1ccc2c(c1)C(C)(C)CCC2(C)C [AGN 191183, 4-[(E)-2-(5,6,7,8-tetrahydro-5,5,8,8-tetramethylnaphthalen-2-yl)propen-1-yl]benzoic acid, reference compound]",Topical Irritation Score,hairless mice [1],8 ± 2
same,Topical Irritation Score,hairless mice [2],8 ± 1
same,% Weight Gain or (Loss),"hairless mice [2]; day 5 vs day 1, parentheses = loss",(21 ± 6) %
same,epiphyseal plate closure,guinea pigs,All four of the AGN 191183-treated guinea pigs showed partial or complete epiphyseal plate closure
same,EGF mediated proliferation,ECE16-1 cells,completely inhibited EGF mediated proliferation
same,antiproliferative activity,"CaSki cells; AGN 191183 10^−10 to 10^−6 M, EGF 20 ng/ml, three days",no antiproliferative activity
same,increase in the proliferation rate,CaSki cells; ten thousand fold increase in AGN 191183 concentration,~20%
same,MRP-8 mRNA expression,[3],inhibited
same,stromelysin-1 mRNA expression,[4],inhibited
